From PMC8849385, “ATP-responsive biomolecular condensates tune bacterial kinase signaling” (Science Advances, 2022)

Assays:
SpmX (ΔTM) = target: T1, SpmX (ΔTM) (Caulobacter vibrioides, UniProt A0A0H3C9Y4); assay: fluorescence microscopy of condensate dissolution; details: 5 μM protein, 5% Cy3 labelled; 5 mM MgCl2, 100 mM KCl, pH 7.4, 1 hour; solute effect on phase separation, no binding constant
T1 construct: cytoplasmic portion, AA 1 to 355 of 431, C-terminal TEV-His10 cleaved; E. coli BL21(DE3)
T1 sequence (A0A0H3C9Y4 entry or part of it, stated change not applied): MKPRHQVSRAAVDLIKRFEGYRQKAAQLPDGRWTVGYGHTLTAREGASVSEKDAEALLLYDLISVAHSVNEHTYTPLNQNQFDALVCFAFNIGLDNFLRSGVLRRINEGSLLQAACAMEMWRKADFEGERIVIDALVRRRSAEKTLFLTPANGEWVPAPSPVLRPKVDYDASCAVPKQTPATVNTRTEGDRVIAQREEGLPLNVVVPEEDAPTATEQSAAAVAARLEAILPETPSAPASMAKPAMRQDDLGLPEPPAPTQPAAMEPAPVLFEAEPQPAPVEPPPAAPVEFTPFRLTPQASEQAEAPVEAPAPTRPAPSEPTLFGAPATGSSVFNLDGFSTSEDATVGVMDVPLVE

PopZ = target: T2, PopZ (Caulobacter vibrioides, UniProt A0A0H3C7Y4); assay: fluorescence microscopy of condensate dissolution; details: 5 μM protein, 1% Atto488 labelled; 5 mM MgCl2, 100 mM KCl, pH 7.4, 1 hour; solute effect on phase separation, no binding constant
T2 construct: full length, AA 1 to 177, C-terminal TEV-His6 cleaved; E. coli BL21(DE3)
T2 sequence (A0A0H3C7Y4 entry or part of it): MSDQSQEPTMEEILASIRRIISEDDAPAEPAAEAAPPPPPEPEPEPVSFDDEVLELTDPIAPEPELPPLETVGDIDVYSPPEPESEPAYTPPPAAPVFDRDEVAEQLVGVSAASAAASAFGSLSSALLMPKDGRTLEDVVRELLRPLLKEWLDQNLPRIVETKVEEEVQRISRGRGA

Nc1ncnc2c1ncn2[C@@H]1O[C@H](COP(=O)(O)OP(=O)(O)OP(=O)(O)O)[C@@H](O)[C@H]1O [ATP]
dissolution concentration of condensates (SpmX (ΔTM)): 2 mM | dissolution concentration of condensates (PopZ): 1 mM
